Data taken from the supplement of paper PMC10307832.

What was measured:
Assay in all cases: relative viability (nuclei count vs DMSO), 5 days (fraction); higher = more cells survive
COR-L23 = tested on: COR-L23
Summary of the method: (§1)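 Relative viability equals treated-well nuclei counts divided by vehicle-well nuclei counts. Counts came from 4× images of lung cancer cell lines grown in 1536-well plates for 5 days after pin-tool dosing on the day after seeding. Dosing used one drug alone or a fixed anchor-drug dose plus five library-drug doses (not always all listed) in √10 steps, and values are medians of duplicate plates.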

ChaGo-K-1 = tested on: ChaGo-K-1
Summary of the method: as §1

EPLC-272H = tested on: EPLC-272H
Summary of the method: as §1

H3255 = tested on: H3255
Summary of the method: as §1

HARA = tested on: HARA
Summary of the method: as §1

HCC-78 = tested on: HCC-78
Summary of the method: as §1

HOP-62 = tested on: HOP-62
Summary of the method: as §1

LCLC-97TM1 = tested on: LCLC-97TM1
Summary of the method: as §1

LXF-289 = tested on: LXF-289
Summary of the method: as §1

NCI-H1395 = tested on: NCI-H1395
Summary of the method: as §1

NCI-H1437 = tested on: NCI-H1437
Summary of the method: as §1

NCI-H1650 = tested on: NCI-H1650
Summary of the method: as §1

NCI-H1666 = tested on: NCI-H1666
Summary of the method: as §1

NCI-H1793 = tested on: NCI-H1793
Summary of the method: as §1

NCI-H1944 = tested on: NCI-H1944
Summary of the method: as §1

NCI-H2085 = tested on: NCI-H2085
Summary of the method: as §1

NCI-H2087 = tested on: NCI-H2087
Summary of the method: as §1

NCI-H2126 = tested on: NCI-H2126
Summary of the method: as §1

NCI-H3122 = tested on: NCI-H3122
Summary of the method: as §1

NCI-H441 = tested on: NCI-H441
Summary of the method: as §1

NCI-H596 = tested on: NCI-H596
Summary of the method: as §1

NCI-H661 = tested on: NCI-H661
Summary of the method: as §1

PC-14 = tested on: PC-14
Summary of the method: as §1

Cc1csc(=NC2CCCCC2)n1/N=C/c1ccc(O)c(O)c1O [MIM1] + COc1cccc2cc(-c3nc([C@H]4CC[C@H](C(=O)O)CC4)n4ncnc(N)c34)[nH]c12 [OSI-027] (partner 0.5 µM)
relative viability (COR-L23; first compound 0.2 µM): 0.843 | relative viability (COR-L23; first compound 0.6325 µM): 0.955 | relative viability (COR-L23; first compound 2 µM): 0.654 | relative viability (COR-L23; first compound 6.325 µM): 0.603 | relative viability (COR-L23; first compound 20 µM): 0.382 | relative viability (ChaGo-K-1; first compound 0.2 µM): 0.597 | relative viability (ChaGo-K-1; first compound 0.6325 µM): 0.433 | relative viability (ChaGo-K-1; first compound 2 µM): 0.535 | relative viability (ChaGo-K-1; first compound 6.325 µM): 0.387 | relative viability (ChaGo-K-1; first compound 20 µM): 0.159 | relative viability (EPLC-272H; first compound 0.2 µM): 0.254 | relative viability (EPLC-272H; first compound 0.6325 µM): 0.269 | relative viability (EPLC-272H; first compound 2 µM): 0.308 | relative viability (EPLC-272H; first compound 6.325 µM): 0.24 | relative viability (EPLC-272H; first compound 20 µM): 0.141 | relative viability (H3255; first compound 0.2 µM): 0.596 | relative viability (H3255; first compound 0.6325 µM): 0.575 | relative viability (H3255; first compound 2 µM): 0.572 | relative viability (H3255; first compound 6.325 µM): 0.519 | relative viability (H3255; first compound 20 µM): 0.313 | relative viability (HARA; first compound 0.2 µM): 0.503 | relative viability (HARA; first compound 2 µM): 0.547 | relative viability (HARA; first compound 6.325 µM): 0.166 | relative viability (HARA; first compound 20 µM): 0.0624 | relative viability (HCC-78; first compound 0.2 µM): 0.365 | relative viability (HCC-78; first compound 0.6325 µM): 0.356 | relative viability (HCC-78; first compound 2 µM): 0.303 | relative viability (HCC-78; first compound 6.325 µM): 0.384 | relative viability (HCC-78; first compound 20 µM): 0.468 | relative viability (HOP-62; first compound 0.2 µM): 0.848 | relative viability (HOP-62; first compound 0.6325 µM): 0.912 | relative viability (HOP-62; first compound 2 µM): 0.789 | relative viability (HOP-62; first compound 6.325 µM): 0.666 | relative viability (HOP-62; first compound 20 µM): 0.19 | relative viability (LCLC-97TM1; first compound 0.2 µM): 0.437 | relative viability (LCLC-97TM1; first compound 0.6325 µM): 0.455 | relative viability (LCLC-97TM1; first compound 2 µM): 0.508 | relative viability (LCLC-97TM1; first compound 6.325 µM): 0.503 | relative viability (LCLC-97TM1; first compound 20 µM): 0.193 | relative viability (LXF-289; first compound 0.2 µM): 0.782 | relative viability (LXF-289; first compound 0.6325 µM): 0.586 | relative viability (LXF-289; first compound 2 µM): 0.806 | relative viability (LXF-289; first compound 6.325 µM): 0.686 | relative viability (LXF-289; first compound 20 µM): 0.441 | relative viability (NCI-H1395; first compound 0.2 µM): 0.592 | relative viability (NCI-H1395; first compound 0.6325 µM): 0.63 | relative viability (NCI-H1395; first compound 2 µM): 0.618 | relative viability (NCI-H1395; first compound 6.325 µM): 0.508 | relative viability (NCI-H1395; first compound 20 µM): 0.374 | relative viability (NCI-H1437; first compound 0.2 µM): 0.935 | relative viability (NCI-H1437; first compound 0.6325 µM): 0.854 | relative viability (NCI-H1437; first compound 2 µM): 0.952 | relative viability (NCI-H1437; first compound 6.325 µM): 0.599 | relative viability (NCI-H1437; first compound 20 µM): 0.186 | relative viability (NCI-H1650; first compound 0.2 µM): 0.653 | relative viability (NCI-H1650; first compound 0.6325 µM): 0.668 | relative viability (NCI-H1650; first compound 2 µM): 0.447 | relative viability (NCI-H1650; first compound 6.325 µM): 0.164 | relative viability (NCI-H1650; first compound 20 µM): 0.147 | relative viability (NCI-H1666; first compound 0.2 µM): 0.957 | relative viability (NCI-H1666; first compound 0.6325 µM): 0.9 | relative viability (NCI-H1666; first compound 2 µM): 0.804 | relative viability (NCI-H1666; first compound 6.325 µM): 0.639 | relative viability (NCI-H1666; first compound 20 µM): 0.459 | relative viability (NCI-H1793; first compound 0.2 µM): 0.273 | relative viability (NCI-H1793; first compound 2 µM): 0.247 | relative viability (NCI-H1793; first compound 6.325 µM): 0.256 | relative viability (NCI-H1793; first compound 20 µM): 0.287 | relative viability (NCI-H1944; first compound 0.2 µM): 0.441 | relative viability (NCI-H1944; first compound 0.6325 µM): 0.44 | relative viability (NCI-H1944; first compound 2 µM): 0.334 | relative viability (NCI-H1944; first compound 6.325 µM): 0.365 | relative viability (NCI-H1944; first compound 20 µM): 0.285 | relative viability (NCI-H2085; first compound 0.2 µM): 0.676 | relative viability (NCI-H2085; first compound 0.6325 µM): 0.808 | relative viability (NCI-H2085; first compound 2 µM): 0.712 | relative viability (NCI-H2085; first compound 6.325 µM): 0.565 | relative viability (NCI-H2085; first compound 20 µM): 0.446 | relative viability (NCI-H2087; first compound 0.2 µM): 0.688 | relative viability (NCI-H2087; first compound 0.6325 µM): 0.511 | relative viability (NCI-H2087; first compound 2 µM): 0.696 | relative viability (NCI-H2087; first compound 6.325 µM): 0.547 | relative viability (NCI-H2087; first compound 20 µM): 0.34 | relative viability (NCI-H2126; first compound 0.2 µM): 0.758 | relative viability (NCI-H2126; first compound 0.6325 µM): 0.672 | relative viability (NCI-H2126; first compound 2 µM): 0.732 | relative viability (NCI-H2126; first compound 6.325 µM): 0.657 | relative viability (NCI-H2126; first compound 20 µM): 0.466 | relative viability (NCI-H3122; first compound 0.2 µM): 1.04 | relative viability (NCI-H3122; first compound 0.6325 µM): 1.11 | relative viability (NCI-H3122; first compound 2 µM): 0.904 | relative viability (NCI-H3122; first compound 6.325 µM): 0.398 | relative viability (NCI-H3122; first compound 20 µM): 0.175 | relative viability (NCI-H441; first compound 0.2 µM): 0.575 | relative viability (NCI-H441; first compound 2 µM): 0.625 | relative viability (NCI-H441; first compound 6.325 µM): 0.472 | relative viability (NCI-H441; first compound 20 µM): 0.191 | relative viability (NCI-H596; first compound 0.2 µM): 0.622 | relative viability (NCI-H596; first compound 0.6325 µM): 0.757 | relative viability (NCI-H596; first compound 2 µM): 0.72 | relative viability (NCI-H596; first compound 6.325 µM): 0.628 | relative viability (NCI-H596; first compound 20 µM): 0.659 | relative viability (NCI-H661; first compound 0.2 µM): 0.756 | relative viability (NCI-H661; first compound 0.6325 µM): 0.684 | relative viability (NCI-H661; first compound 2 µM): 0.636 | relative viability (NCI-H661; first compound 6.325 µM): 0.534 | relative viability (NCI-H661; first compound 20 µM): 0.31 | relative viability (PC-14; first compound 0.2 µM): 0.785 | relative viability (PC-14; first compound 0.6325 µM): 0.846 | relative viability (PC-14; first compound 2 µM): 0.499 | relative viability (PC-14; first compound 6.325 µM): 0.656 | relative viability (PC-14; first compound 20 µM): 0.0965
